Measured values from patent US20210087156A1, “PHARMACEUTICALLY ACCEPTABLE SALTS OF BENZODICYCLOALKANE DERIVATIVE, P[…] THEREOF, AND APPLICATION THEREOF” (priority 2018, published 2021).
In brackets after ≈: the same amount, converted by molar mass.

Assays:
[1] = Properties of crystal form I (DVS hygroscopicity, stability); assay type: physicochemical
Method: The Dynamic Vapor Sorption (DVS) curve was acquired on the DVS Intrinsic of Surface Measurement Systems.
About 10 mg of the free base of the compound of formula X prepared according to the method of Example 1 was weighed into a glass vial, and an appropriate amount of ethyl acetate was added to obtain a nearly saturated solution, which was fully dissolved by ultrasonication and filtered. 20-200 uL of corresponding solvent was added to the clear filtrate, which was stood and the solvent was slowly evaporated at room temperature. After the solvent was completely evaporated, the resulting solid was collected and subjected to an XRPD test.

[2] = Stability test of free base, crystal form A and crystal form C (content and related substance); assay type: physicochemical
Method: The crystal form and purity change were measured respectively on 3rd and 7th day. The results are shown in Table 6, FIGS. 22, 23, 24 and 25. […]

[3] = Solubility test at room temperature; assay type: physicochemical
Method: The solubility of the crystal form A, the crystal form C and the free base in 0.1 M HCL, pH 4.5, or pH 6.8 buffer or water was tested at room temperature. In the test, the standard curves of the crystal form A, the crystal form C and the free base were plotted respectively. Subsequently, a appropriate amount of the crystal form A, the crystal form C and the free base was weighed respectively, to which was added a appropriate amount of solvent. The mixture was shaken at room temperature for 24 h, centrifuged. The supernatant was taken and the solubility was determined. The results are shown in Table 7, (the concentration unit is mg/mi).

[4] = biological target: T1, hERG potassium ion channel (Homo sapiens, UniProt Q12809); assay: Inhibition of hERG potassium ion channel, manual whole-cell patch clamp in CHO hERG cells; assay type: cell-based
T1 construct: host or cells: CHO cells stably expressing hERG
T1 sequence (Q12809 whole entry): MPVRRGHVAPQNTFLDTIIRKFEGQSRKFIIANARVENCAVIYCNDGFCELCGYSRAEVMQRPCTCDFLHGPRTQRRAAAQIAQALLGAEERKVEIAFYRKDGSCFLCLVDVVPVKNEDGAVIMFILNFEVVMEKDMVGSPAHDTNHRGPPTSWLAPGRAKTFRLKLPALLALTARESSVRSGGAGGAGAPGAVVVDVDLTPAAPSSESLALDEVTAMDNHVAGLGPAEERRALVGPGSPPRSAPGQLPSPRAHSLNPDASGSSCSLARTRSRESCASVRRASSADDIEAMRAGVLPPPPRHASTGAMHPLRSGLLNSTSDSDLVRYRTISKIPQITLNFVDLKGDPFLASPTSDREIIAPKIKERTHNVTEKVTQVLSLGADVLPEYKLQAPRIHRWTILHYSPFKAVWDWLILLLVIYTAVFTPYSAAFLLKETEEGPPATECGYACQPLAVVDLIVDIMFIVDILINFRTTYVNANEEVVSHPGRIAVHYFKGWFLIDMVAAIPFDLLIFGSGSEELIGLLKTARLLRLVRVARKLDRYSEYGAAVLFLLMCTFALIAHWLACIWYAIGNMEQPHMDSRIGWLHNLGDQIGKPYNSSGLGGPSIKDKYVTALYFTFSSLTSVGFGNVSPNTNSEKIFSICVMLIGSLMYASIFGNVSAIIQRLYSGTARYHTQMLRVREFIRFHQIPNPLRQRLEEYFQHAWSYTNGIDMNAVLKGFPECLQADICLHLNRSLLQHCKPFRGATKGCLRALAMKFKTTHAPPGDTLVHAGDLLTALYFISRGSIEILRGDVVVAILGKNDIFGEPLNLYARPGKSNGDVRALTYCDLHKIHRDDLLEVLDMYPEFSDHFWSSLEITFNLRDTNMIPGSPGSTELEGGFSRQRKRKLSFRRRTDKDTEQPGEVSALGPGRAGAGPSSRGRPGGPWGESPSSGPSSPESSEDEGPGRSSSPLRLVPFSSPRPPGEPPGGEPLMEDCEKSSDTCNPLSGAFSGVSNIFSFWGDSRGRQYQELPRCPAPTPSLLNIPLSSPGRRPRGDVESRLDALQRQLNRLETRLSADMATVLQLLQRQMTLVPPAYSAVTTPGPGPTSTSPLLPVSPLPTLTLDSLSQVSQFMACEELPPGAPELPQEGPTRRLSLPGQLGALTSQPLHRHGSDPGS
Method: 2.1.1 Cells used in this experiment are CHO cell lines (supplied by Sophion Bioscience, Denmark) which are hERG cDNA transfectant and stably express hERG channels, cell progeny is P15. Cells are cultured in medium containing the following ingredients Invitrogen): Ham's F12 medium, 10% (v/v) inactivated fetal bovine serum, […] hygromycin B, […] Geneticin.
2.1.2 CHO hERG cells were grown in Petri dishes containing the above medium and cultured in an incubator containing 5% CO2 at 37° C. […]
In this experiment, whole-cell current recording was performed using a manual patch clamp system (HEKA EPC-10 signal amplification and digital conversion system, purchased from HEKA Electronic, Germany) The round glass slide of which surface CHO hERG cells were grown on was placed in an electrophysiological recording slot under an inverted microscope. […] The hERG potassium current recorded in the above steps should be superfused for test drug after the steady perfusion state of the extracellular fluid in the recording slot is stabilized until the inhibition of the hERG current by the drug reached a steady state. […]
The test data were analyzed by the data analysis software provided by HEKA Patchmaster (V2x73.2), Microsoft Excel and Graphpad Prism 5.0.

CYP3A4 = biological target: T2, CYP3A4 (Homo sapiens, UniProt P08684); assay: Inhibition of CYP enzyme (CYP3A4, midazolam substrate, HLM); assay type: in vitro ADME
T2 construct: Add 200 μL of 0.2 mg/mL HLM to the assay wells; from tissue; host or cells: liver microsomes (HLM)
T2 sequence (P08684 whole entry): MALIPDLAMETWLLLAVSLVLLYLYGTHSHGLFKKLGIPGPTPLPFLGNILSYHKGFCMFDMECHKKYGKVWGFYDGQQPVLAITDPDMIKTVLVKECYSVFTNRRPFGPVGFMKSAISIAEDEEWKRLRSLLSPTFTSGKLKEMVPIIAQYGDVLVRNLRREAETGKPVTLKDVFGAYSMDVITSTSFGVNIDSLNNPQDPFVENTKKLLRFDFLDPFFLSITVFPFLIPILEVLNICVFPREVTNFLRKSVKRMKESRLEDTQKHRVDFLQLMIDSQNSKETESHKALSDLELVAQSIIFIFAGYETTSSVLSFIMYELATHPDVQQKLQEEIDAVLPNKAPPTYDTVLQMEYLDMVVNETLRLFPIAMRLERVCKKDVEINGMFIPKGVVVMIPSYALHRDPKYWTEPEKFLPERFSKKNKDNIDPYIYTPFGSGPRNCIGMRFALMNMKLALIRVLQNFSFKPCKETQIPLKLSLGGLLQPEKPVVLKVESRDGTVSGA
Method: 1. Preheat 0.1 M potassium phosphate buffer (K-buffer), pH 7.4:
100 mM K-Buffer: mix 9.5 mL Stock A into 40.5 mL Stock B, bring total volume to 500 mL with Milli-Q water, titrate the buffer with KOH or H3PO4 to pH 7.4.
Stock A (1 M monobasic potassium phosphate): 136.5 g of monobasic potassium phosphate in 1 L of Milli-Q water.
Stock B (1 M dibasic potassium phosphate): 174.2 g of dibasic potassium phosphate in 1 L of Milli-Q water.
2. Prepare serial dilution for test compounds and reference inhibitors (400×) in a 96-well plate:
2.1 Transfer 8 μL of 10 mM test compounds to 12 μL of ACN.
2.2 Prepare individual inhibitor spiking solution for reference: 8 μL of DMSO stock to 12 μL of ACN.
2.3 Prepare 1:3 serial dilutions in DMSO:ACN mixture (v/v: 40:60).
3. Prepare 4×NADPH cofactor (66.7 mg NADPH in 10 mL 0.1 M K-buffer, pH7.4).
4. Prepare 4×substrate (2 mL for each isoform) as indicated in the table below (add HLM where required on ice).
5. Prepare 0.2 mg/mL HLM solution (10 μL of 20 mg/mL to 990 μL of 0.1 M K-buffer) on ice.
6. Add 200 μL of 0.2 mg/mL HLM to the assay wells and then add 1 μL of test compounds or reference compounds into the designated wells on ice.
7. Add following solutions (in duplicate) in a 96-well assay plate on ice:
7.1 Add 30 μL of 2×test compounds and reference compound in 0.2 mg/mL HLM solution;
7.2 Add 15 μL of 4×substrate solution.
8. […]

[5] = Potency compared with the existing dezocine (statement, no method given)
[6] = 40° C./75% RH, 3 d, listed as From C
[7] = 40° C./75% RH, 7 d, listed as From C
[8] = 0.1M HCL, room temperature, shaken 24 h
[9] = H2O, room temperature, shaken 24 h
[10] = pH 4.5 buffer, room temperature, shaken 24 h
[11] = pH 6.8 buffer, room temperature, shaken 24 h
[12] = 5° C., 0 d (control), listed as From A
[13] = 40° C./75% RH, 3 d, listed as From A
[14] = 40° C./75% RH, 7 d, listed as From A

C[C@@]12CCCCC[C@@H](Cc3ccc(OC(=O)NC4COC4)cc31)[C@@H]2N [Form I]
stability (in words) [1]: good stability | hygroscopicity (DVS curve) ([1]; DVS, 25° C., 0% RH~95% RH): almost has no hygroscopicity

C[C@@]12CCCCC[C@@H](Cc3ccc(OC(=O)NC4COC4)cc31)[C@@H]2N [Form C]
character ([2]; 5° C., 0 d (control)): off-white solid | Area (%) ([2]; 5° C., 0 d (control), listed as From C): 100.00% | RRT(%) 0.70 (related substance) ([2]; 40° C./75% RH, 3 d): 3.60% | RRT(%) 1.14 (related substance) ([2]; 40° C./75% RH, 3 d): 0.93% | character ([2]; 40° C./75% RH, 3 d): off-white solid | Area (%) [2, 6]: 94.92% | RRT(%) 0.81 (related substance) [2, 6]: 0.54% | Total impurity (%) [2, 6]: 5.08% | RRT(%) 0.70 (related substance) ([2]; 40° C./75% RH, 7 d): 3.04% | RRT(%) 1.14 (related substance) ([2]; 40° C./75% RH, 7 d): 0.92% | character ([2]; 40° C./75% RH, 7 d): off-white solid | Area (%) [2, 7]: 95.19% | RRT(%) 0.81 (related substance) [2, 7]: 0.85% | Total impurity (%) [2, 7]: 4.81% | RRT(%) 0.70 (related substance) ([2]; 60° C., 3 d): 3.68% | RRT(%) 1.14 (related substance) ([2]; 60° C., 3 d): 1.44% | character ([2]; 60° C., 3 d): off-white solid | Area (%) ([2]; 60° C., 3 d, listed as From C): 94.64% | RRT(%) 0.81 (related substance) ([2]; 60° C., 3 d, listed as From C): 0.24% | Total impurity (%) ([2]; 60° C., 3 d, listed as From C): 5.36% | RRT(%) 0.70 (related substance) ([2]; 60° C., 7 d): 3.60% | RRT(%) 1.14 (related substance) ([2]; 60° C., 7 d): 1.52% | character ([2]; 60° C., 7 d): off-white solid | Area (%) ([2]; 60° C., 7 d, listed as From C): 94.62% | RRT(%) 0.81 (related substance) ([2]; 60° C., 7 d, listed as From C): 0.26% | Total impurity (%) ([2]; 60° C., 7 d, listed as From C): 5.38% | Final pH [3, 8]: 1.53 | phenomenon [3, 8]: clarified | solubility [3, 8]: ≥33.87 mg/mL | Final pH [3, 9]: 3.45 | phenomenon [3, 9]: clarified | solubility [3, 9]: ≥26.05 mg/mL | solubility compared to the free base (in words) ([3]; pH 4.5, pH 6.8, or 0.1 M HCL): increased significantly | Final pH [3, 10]: 3.47 | phenomenon [3, 10]: clarified | solubility [3, 10]: ≥25.50 mg/mL | Final pH [3, 11]: 3.84 | phenomenon [3, 11]: clarified | solubility [3, 11]: ≥26.11 mg/mL

C[C@@]12CCCCC[C@@H](Cc3ccc(OC(=O)NC4COC4)cc31)[C@@H]2N [Form A]
character ([2]; 5° C., 0 d (control)): off-white solid | Area (%) [2, 12]: 99.82% | Total impurity (%) [2, 12]: 0.18% | RRT(%) 1.25 (related substance) ([2]; 5° C., 0 d, — = below detection limit): 0.18% | RRT(%) 1.25 (related substance) ([2]; 40° C./75% RH, 3 d): 0.14% | character ([2]; 40° C./75% RH, 3 d): off-white solid | Area (%) [2, 13]: 99.47% | RRT(%) 0.81 (related substance) [2, 13]: 0.39% | Total impurity (%) [2, 13]: 0.53% | RRT(%) 1.25 (related substance) ([2]; 40° C./75% RH, 7 d): 0.17% | character ([2]; 40° C./75% RH, 7 d): off-white solid | Area (%) [2, 14]: 99.28% | RRT(%) 0.81 (related substance) [2, 14]: 0.54% | Total impurity (%) [2, 14]: 0.72% | RRT(%) 1.25 (related substance) ([2]; 60° C., 3 d): 0.20% | character ([2]; 60° C., 3 d): off-white solid | Area (%) ([2]; 60° C., 3 d, listed as From A): 99.68% | RRT(%) 0.81 (related substance) ([2]; 60° C., 3 d, listed as From A): 0.12% | Total impurity (%) ([2]; 60° C., 3 d, listed as From A): 0.32% | RRT(%) 1.25 (related substance) ([2]; 60° C., 7 d): 0.30% | character ([2]; 60° C., 7 d): off-white solid | Area (%) ([2]; 60° C., 7 d, listed as From A): 99.58% | RRT(%) 0.81 (related substance) ([2]; 60° C., 7 d, listed as From A): 0.11% | Total impurity (%) ([2]; 60° C., 7 d, listed as From A): 0.42% | Final pH [3, 8]: 0.91 | phenomenon [3, 8]: Flocculent | solubility at 24 h ([3]; 0.1 M HCl, simulated gastric fluid, thermodynamic from solid, room temperature, shaken 24 h): 17.8 mg/mL (≈ 51.8 mM) | Final pH [3, 9]: 3.86 | phenomenon [3, 9]: Flocculent | solubility [3, 9]: 8.25 mg/mL (≈ 24 mM) | Final pH [3, 10]: 3.92 | phenomenon [3, 10]: clarified | solubility [3, 10]: ≥8.36 mg/mL | Final pH [3, 11]: 5.86 | phenomenon [3, 11]: clarified | solubility [3, 11]: ≥11.03 mg/mL

C[C@@]12CCCCC[C@@H](Cc3ccc(OC(=O)NC4COC4)cc31)[C@@H]2N [free base of Compound X]
RRT(%) 0.76 (related substance) ([2]; 5° C., 0 d): 1.19% | RRT(%) 1.29 (related substance) ([2]; 5° C., 0 d): 3.35% | RRT(%) 1.53 (related substance) ([2]; 5° C., 0 d): 0.18% | RRT(%) 1.59 (related substance) ([2]; 5° C., 0 d): 0.97% | RRT(%) 1.75 (related substance) ([2]; 5° C., 0 d): 0.43% | Area (%) ([2]; 5° C., 0 d (control)): 93.88% | Total impurity (%) ([2]; 5° C., 0 d (control)): 6.12% | character ([2]; 5° C., 0 d (control)): off-white solid | Final pH [3, 8]: 1.30 | phenomenon [3, 8]: Flocculent | solubility [3, 8]: 18.86 mg/mL (≈ 54.8 mM) | Final pH [3, 9]: 8.61 | phenomenon [3, 9]: turbid | solubility [3, 9]: 0.05 mg/mL (≈ 0.145 mM) | Final pH [3, 10]: 6.41 | phenomenon [3, 10]: turbid | solubility [3, 10]: 3.75 mg/mL (≈ 10.9 mM) | Final pH [3, 11]: 6.78 | phenomenon [3, 11]: turbid | solubility [3, 11]: 2.03 mg/mL (≈ 5.89 mM) | inhibitory activity on the hERG potassium ion channel (in words) ([4]; 10 μM): little inhibitory activity | inhibition at 10 μM ([4]; human, CHO cells stably expressing hERG channels, CHO hERG cells, patch clamp, ~25° C.): 20.6% | inhibitory activity on CYP3A4 (in words) (CYP3A4; 1 μM): little inhibitory activity | inhibition at 5 min, 1 μM (CYP3A4; human, human liver microsomes, pH 7.4, probe midazolam, substrate midazolam (M), 0.1 mg/mL HLM, read-out: CYP3A4(M) inhibition rate/1 μM): 23.8% | potency compared with the existing dezocine [5]: increased more than three-fold
